Source: patent US20250026721A1, “COMPOUNDS AND METHODS FOR MODULATING RAS-PI3K” (Vividion Therapeutics, Inc., priority 2023, published 2025)

These compounds were tested against T1, PIK3CA_C242 (Homo sapiens, UniProt P42336) (assay: Proteomic TE50 (IA-DTB / TMT mass spectrometry) in Jurkat cell lysate). Conditions: 1 hour at rt, 7-point dose response.
T1 construct: endogenous in cells; host or cells: Jurkat cell lysate
Assay type: binding
Experimental: Example 4. Proteomic TE50 In vitro TE50 values for PIK3CA_C242 were obtained by treating 500 μg of cell lysate generated from Jurkat cells with DMSO or compound for 1 hour at rt followed by the addition of 200 μM desthiobiotin polyethyleneoxide iodoacetamide (IA-DTB) in DMSO for one hour at rt. Compounds were serially diluted 1:5 for a total of 7 points in order to generate dose response curves. Samples were then precipitated by the addition of 8× ice cold acetone and incubated at -80° C. for two hours. Protein was then pelleted by centrifugation (4,200 RPM, 45 min, 4° C.). The pelleted material was resuspended in 9M urea, 50 mM ammonium bicarbonate and proteins were reduced and alkylated by the addition of DTT and iodoacetamide (10 and 30 mM, respectively). Following reduction and alkylation, samples were exchanged into 2M urea (Zeba spin desalting plates, Thermo Fisher) and digested with Trypsin. IA-DTB labeled peptides were isolated with streptavidin agarose resin. Enriched peptides were eluted by the addition of 50% acetonitrile (ACN) 0.1% formic acid (FA) and dried in a SpeedVac vacuum concentrator. […] Reactions were quenched by the addition of 6.5 μL of 5% hydroxylamine. Samples were then combined and desalted on a Evolute express ABN plate (Biotage, 600-0010-PX01). Targeted TMT measurements were collected using an Orbitrap Lumos Tribrid Mass Spectrometer (Thermo Scientific) coupled to an UltiMate 3000 Series Rapid Separation LC system and autosampler (Thermo Scientific Dionex). Peptides were eluted onto a custom C18 capillary analytical column (75-μm inner diameter fused silica, packed with Acclaim PepMap C18 resin; Thermo Scientific) using an Acclaim PepMap 100 (Thermo 164535) loading column, and separated at a flow rate of […]. Data were acquired using a specific MS3-based TMT method targeting the peptide containing […], +2 charge state) where MS2 peptide fragmentation is triggered upon detection of the peptide precursor ion. Subsequent MS3 analysis was then performed using pre-selected peptide fragment ions that were isolated for fragmentation using synchronous precursor selection. RAW files were converted to MZXML format and searched with the SEQUEST algorithm using the […] software package. TMT quantitation was performed with a filter requiring at least ten summed signal-to-noise (S/N) for control channels. TE50 values were calculated from 7-point dose response curves created using the reporter ion S/N for each channel.

T1 sequence (P42336 whole entry): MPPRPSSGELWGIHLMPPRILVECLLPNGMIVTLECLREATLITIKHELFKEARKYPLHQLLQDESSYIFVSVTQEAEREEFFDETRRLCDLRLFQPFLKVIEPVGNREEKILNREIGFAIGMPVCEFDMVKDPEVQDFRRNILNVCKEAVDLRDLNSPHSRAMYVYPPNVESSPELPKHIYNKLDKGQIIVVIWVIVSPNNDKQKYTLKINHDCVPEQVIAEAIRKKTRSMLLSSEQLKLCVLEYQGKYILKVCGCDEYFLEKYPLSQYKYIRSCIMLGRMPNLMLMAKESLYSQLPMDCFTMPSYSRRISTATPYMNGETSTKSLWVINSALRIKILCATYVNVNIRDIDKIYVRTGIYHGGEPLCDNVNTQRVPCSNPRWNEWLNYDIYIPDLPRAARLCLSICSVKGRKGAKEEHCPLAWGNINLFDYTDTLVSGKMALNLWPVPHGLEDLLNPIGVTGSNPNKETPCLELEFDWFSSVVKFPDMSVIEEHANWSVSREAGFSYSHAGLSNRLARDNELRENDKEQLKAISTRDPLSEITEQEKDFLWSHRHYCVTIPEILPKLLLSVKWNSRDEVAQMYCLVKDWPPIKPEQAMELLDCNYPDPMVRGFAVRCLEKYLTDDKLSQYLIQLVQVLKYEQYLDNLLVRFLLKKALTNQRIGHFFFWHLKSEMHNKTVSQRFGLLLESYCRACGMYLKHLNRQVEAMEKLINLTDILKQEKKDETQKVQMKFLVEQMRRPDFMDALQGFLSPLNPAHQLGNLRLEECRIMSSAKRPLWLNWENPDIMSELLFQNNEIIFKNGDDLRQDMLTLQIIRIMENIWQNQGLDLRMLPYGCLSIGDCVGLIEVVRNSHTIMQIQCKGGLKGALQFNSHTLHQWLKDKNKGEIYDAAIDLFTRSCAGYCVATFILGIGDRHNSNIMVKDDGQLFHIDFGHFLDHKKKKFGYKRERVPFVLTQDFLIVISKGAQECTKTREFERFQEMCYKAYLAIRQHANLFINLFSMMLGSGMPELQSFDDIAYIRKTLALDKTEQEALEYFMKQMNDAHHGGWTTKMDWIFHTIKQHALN
T1 sequence (P27986 whole entry partner): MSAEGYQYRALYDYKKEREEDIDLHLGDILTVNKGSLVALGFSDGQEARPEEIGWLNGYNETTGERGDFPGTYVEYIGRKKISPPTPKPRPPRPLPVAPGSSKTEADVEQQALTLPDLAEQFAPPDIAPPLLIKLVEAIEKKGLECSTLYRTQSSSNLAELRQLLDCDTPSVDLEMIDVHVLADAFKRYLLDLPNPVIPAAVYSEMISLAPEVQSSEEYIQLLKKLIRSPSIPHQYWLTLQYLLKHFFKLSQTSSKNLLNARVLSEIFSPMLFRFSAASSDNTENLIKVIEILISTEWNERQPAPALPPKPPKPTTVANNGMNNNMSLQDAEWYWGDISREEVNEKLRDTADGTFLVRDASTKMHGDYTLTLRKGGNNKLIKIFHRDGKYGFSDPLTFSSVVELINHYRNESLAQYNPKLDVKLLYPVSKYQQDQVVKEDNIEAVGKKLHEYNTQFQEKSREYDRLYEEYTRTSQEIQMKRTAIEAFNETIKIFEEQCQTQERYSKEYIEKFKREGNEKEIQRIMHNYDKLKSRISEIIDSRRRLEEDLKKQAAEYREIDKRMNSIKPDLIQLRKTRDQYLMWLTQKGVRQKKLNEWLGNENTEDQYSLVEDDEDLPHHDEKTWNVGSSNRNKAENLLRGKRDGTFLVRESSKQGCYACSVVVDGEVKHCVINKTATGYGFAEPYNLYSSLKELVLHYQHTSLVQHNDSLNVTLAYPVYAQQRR

In order of rising IC50:
1. C[C@@H](/C=C\S(C)(=O)=O)NC(=O)C1(F)CCN(S(=O)(=O)c2ccc(N(C)C)cc2-c2ccccc2Cl)CC1 [Compound 89, (S,Z)-1-((2′-chloro-5-(dimethylamino)-[1,1′-biphenyl]-2-yl)sulfonyl)-4-fluoro-N-(4-(methylsulfonyl)but-3-en-2-yl)piperidine-4-carboxamide]  47 nM
2. COc1cccc(-c2cc(Br)ccc2S(=O)(=O)N2CCC(F)(C(=O)N[C@@H](C)/C=C\S(C)(=O)=O)CC2)c1 [Compound 61, (S,Z)-1-((5-bromo-3′-methoxy-[1,1′-biphenyl]-2-yl)sulfonyl)-4-fluoro-N-(4-(methylsulfonyl)but-3-en-2-yl)piperidine-4-carboxamide]  66.7 nM
3. CN(C)c1ccc(S(=O)(=O)N2CCC(F)(C(=O)NC/C=C/S(C)(=O)=O)CC2)c(-c2ccccc2Cl)c1 [Compound 95, (E)-1-((2′-chloro-5-(dimethylamino)-[1,1′-biphenyl]-2-yl)sulfonyl)-4-fluoro-N-(3-(methylsulfonyl)allyl)piperidine-4-carboxamide]  100 nM
4. C=Cc1ccc(S(=O)(=O)N2CCC(F)(C(=O)N[C@H](C)/C=C\S(C)(=O)=O)CC2)c(-c2ccccc2C)c1 [Compound 108, (R,Z)-4-fluoro-1-((2′-methyl-5-vinyl-[1,1′-biphenyl]-2-yl)sulfonyl)-N-(4-(methylsulfonyl)but-3-en-2-yl)piperidine-4-carboxamide]  120 nM
5. COc1ccc(S(=O)(=O)N2CCC(F)(C(=O)NC/C=C\C#N)CC2)c(-c2ccccc2Cl)c1 [Compound 71, (Z)-1-((2′-chloro-5-methoxy-[1,1′-biphenyl]-2-yl)sulfonyl)-N-(3-cyanoallyl)-4-fluoropiperidine-4-carboxamide]  160 nM
6. CCc1ccc(S(=O)(=O)N2CCC(F)(C(=O)N[C@H](C)/C=C\S(C)(=O)=O)CC2)c(-c2ccccc2C)c1 [Compound 113, (R,Z)-1-((5-ethyl-2′-methyl-[1,1′-biphenyl]-2-yl)sulfonyl)-4-fluoro-N-(4-(methylsulfonyl)but-3-en-2-yl)piperidine-4-carboxamide]  170 nM
7. CN(C)c1ccc(S(=O)(=O)N2CCC(F)(C(=O)NC/C=C/S(C)(=O)=O)CC2)c(-c2ccccc2)c1 [Compound 94, (E)-1-((5-(dimethylamino)-[1,1′-biphenyl]-2-yl)sulfonyl)-4-fluoro-N-(3-(methylsulfonyl)allyl)piperidine-4-carboxamide]  190 nM
8. COc1cccc(-c2cc(Br)ccc2S(=O)(=O)N2CCC(F)(C(=O)NC/C=C/S(C)(=O)=O)CC2)c1 [Compound 63, (E)-1-((5-bromo-3′-methoxy-[1,1′-biphenyl]-2-yl)sulfonyl)-4-fluoro-N-(3-(methylsulfonyl)allyl)piperidine-4-carboxamide]  360 nM
9. CN(C)c1ccc(S(=O)(=O)N2CCC(F)(C(=O)NC/C=C/C#N)CC2)c(-c2ccccc2Cl)c1 [Compound 97, (E)-1-((2′-chloro-5-(dimethylamino)-[1,1′-biphenyl]-2-yl)sulfonyl)-N-(3-cyanoallyl)-4-fluoropiperidine-4-carboxamide]  370 nM
10. COc1cccc(-c2cc(N(C)C)ccc2S(=O)(=O)N2CCC(F)(C(=O)NC/C=C/S(C)(=O)=O)CC2)c1 [Compound 96, (E)-1-((5-(dimethylamino)-3′-methoxy-[1,1′-biphenyl]-2-yl)sulfonyl)-4-fluoro-N-(3-(methylsulfonyl)allyl)piperidine-4-carboxamide]  410 nM
11. CC#Cc1cccc(-c2cc(Cl)ccc2S(=O)(=O)N2CCC(F)(C(=O)NC/C=C/S(C)(=O)=O)CC2)c1 [Compound 46, (E)-1-((5-chloro-3′-(prop-1-yn-1-yl)-[1,1′-biphenyl]-2-yl)sulfonyl)-4-fluoro-N-(3-(methylsulfonyl)allyl)piperidine-4-carboxamide]  460 nM
12. COc1cccc(-c2cc(Cl)ccc2S(=O)(=O)N2CCC(F)(C(=O)N[C@H](C)/C=C/S(C)(=O)=O)CC2)c1 [Compound 80, (R,E)-1-((5-chloro-3′-methoxy-[1,1′-biphenyl]-2-yl)sulfonyl)-4-fluoro-N-(4-(methylsulfonyl)but-3-en-2-yl)piperidine-4-carboxamide]  510 nM
13. N#C/C=C/CNC(=O)C1(F)CCN(S(=O)(=O)c2ccc(Cl)cc2-c2ccccc2Cl)CC1 [Compound 69, (E)-N-(3-cyanoallyl)-1-((2′,5-dichloro-[1,1′-biphenyl]-2-yl)sulfonyl)-4-fluoropiperidine-4-carboxamide]  520 nM
14. C[C@H](/C=C\S(C)(=O)=O)NC(=O)C1(F)CCN(S(=O)(=O)c2ccc(C3CCC3)cc2-c2ccccc2Cl)CC1 [Compound 98, (R,Z)-1-((2′-chloro-5-cyclobutyl-[1,1′-biphenyl]-2-yl)sulfonyl)-4-fluoro-N-(4-(methylsulfonyl)but-3-en-2-yl)piperidine-4-carboxamide]  520 nM
15. C[C@H](/C=C\S(C)(=O)=O)NC(=O)C1(F)CCN(S(=O)(=O)c2ccc(O)cc2-c2ccccc2Cl)CC1 [Compound 104, (R,Z)-1-((2′-chloro-5-hydroxy-[1,1′-biphenyl]-2-yl)sulfonyl)-4-fluoro-N-(4-(methylsulfonyl)but-3-en-2-yl)piperidine-4-carboxamide]  620 nM
16. CC(C)Oc1ccc(S(=O)(=O)N2CCC(F)(C(=O)N[C@H](C)/C=C\S(C)(=O)=O)CC2)c(-c2ccccc2Cl)c1 [Compound 105, (R,Z)-1-((2′-chloro-5-isopropoxy-[1,1′-biphenyl]-2-yl)sulfonyl)-4-fluoro-N-(4-(methylsulfonyl)but-3-en-2-yl)piperidine-4-carboxamide]  780 nM
17. C[C@H](/C=C\S(C)(=O)=O)NC(=O)C1(F)CCN(S(=O)(=O)c2ccc(C3CN(C(=O)OC(C)(C)C)C3)cc2-c2ccccc2Cl)CC1 [Compound 99, tert-butyl (R,Z)-3-(2′-chloro-6-((4-fluoro-4-((4-(methylsulfonyl)but-3-en-2-yl)carbamoyl)piperidin-1-yl)sulfonyl)-[1,1′-biphenyl]-3-yl)azetidine-1-carboxylate]  830 nM
18. Cc1ccccc1-c1cc(OC(C)C)ccc1S(=O)(=O)N1CCC(F)(C(=O)N[C@H](C)/C=C\S(C)(=O)=O)CC1 [Compound 103, (R,Z)-4-fluoro-1-((5-isopropoxy-2′-methyl-[1,1′-biphenyl]-2-yl)sulfonyl)-N-(4-(methylsulfonyl)but-3-en-2-yl)piperidine-4-carboxamide]  830 nM
19. C[C@H](/C=C\S(C)(=O)=O)NC(=O)C1(F)CCN(S(=O)(=O)c2ccc(OC3CC3)cc2-c2ccccc2Cl)CC1 [Compound 101, (R,Z)-1-((2′-chloro-5-cyclopropoxy-[1,1′-biphenyl]-2-yl)sulfonyl)-4-fluoro-N-(4-(methylsulfonyl)but-3-en-2-yl)piperidine-4-carboxamide]  860 nM
20. CC[C@H](/C=C\S(C)(=O)=O)NC(=O)C1(F)CCN(S(=O)(=O)c2ccc(N(C)C)cc2-c2ccccc2Cl)CC1 [Compound 85, (R,Z)-1-((2′-chloro-5-(dimethylamino)-[1,1′-biphenyl]-2-yl)sulfonyl)-4-fluoro-N-(1-(methylsulfonyl)pent-1-en-3-yl)piperidine-4-carboxamide]  930 nM
